Results as given in patent publication US12384789B2, “Compounds for treating Huntington's disease” (PTC Therapeutics, Inc., priority 2017, dated 2025).

Test system: Endogenous Huntingtin Protein
Test: Endogenous Huntingtin Protein Assay (Meso Scale Discovery ELISA-based electrochemiluminescence)
Assay type: cell-based
Conditions: MSD electrochemiluminescence, Table 1
In short: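 MSD electrochemiluminescence sandwich ELISA: MW1 (expanded polyQ) or MAB2166 capture antibody at 1 μg/mL, samples incubated overnight at 4° C. Detection with rabbit monoclonal #5656S then SULFO-TAG anti-rabbit antibody, each 0.25 μg/mL for 1 h at room temperature.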

Row | SMILES | IC50 [nM]
1 | Cn1cc2cc(-c3ncc4cc(C5=CCNCC5)cc(F)c4n3)cc(F)c2n1 [Compound 165, 8-fluoro-2-(7-fluoro-2-methyl-2H-indazol-5-yl)-6-(1,2,3,6-tetrahydropyridin-4-yl)quinazoline] | ≤ 100
2 | Cn1cc2cc(-c3ccc4cc(C5=CCNCC5)cc(F)c4n3)cc(F)c2n1 [Compound 166, 8-fluoro-2-(7-fluoro-2-methyl-2H-indazol-5-yl)-6-(1,2,3,6-tetrahydropyridin-4-yl)quinoline] | ≤ 100
3 | Cc1cn2nc(-c3cc4c(F)cc(C5=CCNCC5)cc4nn3)cc(C)c2n1 [Compound 167, 3-(2,8-dimethylimidazo[1,2-b]pyridazin-6-yl)-5-fluoro-7-(1,2,3,6-tetrahydropyridin-4-yl)cinnoline] | ≤ 100
4 | CCN1[C@H](C)CC(c2cc3c(F)cc(-c4cc(C)c5nc(C)cn5n4)cc3nn2)C[C@@H]1C (stereo partly drawn) [Compound 168, 7-(2,8-dimethylimidazo[1,2-b]pyridazin-6-yl)-3-[(2R,6S)-1-ethyl-2,6-dimethylpiperidin-4-yl]-5-fluorocinnoline] | 100 to 500
5 | Cc1cn2nc(-c3cc(F)c4cc(C5CC6CC[C@@H](C5)N6)nnc4c3)cc(C)c2n1 (stereo partly drawn) [Compound 169, 3-[(1R,3r,5S)-8-azabicyclo[3.2.1]octan-3-yl]-7-(2,8-dimethylimidazo[1,2-b]pyridazin-6-yl)-5-fluorocinnoline] | ≤ 100
6 | Cc1cn2nc(-c3cc(F)c4cc(C5C[C@@H](C)N(CCF)[C@@H](C)C5)nnc4c3)cc(C)c2n1 (stereo partly drawn) [Compound 170, 7-(2,8-dimethylimidazo[1,2-b]pyridazin-6-yl)-5-fluoro-3-[(2R,6S)-1-(2-fluoroethyl)-2,6-dimethylpiperidin-4-yl]cinnoline] | 100 to 500
7 | Cn1nc2cc(-c3cc4c(F)cc(C5=CCNCC5)cc4nn3)cc(F)c2n1 [Compound 171, 5-fluoro-3-(7-fluoro-2-methyl-2H-benzotriazol-5-yl)-7-(1,2,3,6-tetrahydropyridin-4-yl)cinnoline] | ≤ 100
8 | Cn1cc2cc(-c3cc4c(F)cc(C5=CCNCC5)cc4nn3)cc(C#N)c2n1 [Compound 175, 5-[5-fluoro-7-(1,2,3,6-tetrahydropyridin-4-yl)cinnolin-3-yl]-2-methyl-2H-indazole-7-carbonitrile] | ≤ 100
9 | CCN1CC=C(c2cc(F)c3nc(-c4cc(F)c5nn(C)cc5c4)ccc3c2)CC1 [Compound 184, 6-(1-ethyl-1,2,3,6-tetrahydropyridin-4-yl)-8-fluoro-2-(7-fluoro-2-methyl-2H-indazol-5-yl)quinoline] | ≤ 100
10 | Cc1cc2cc(-c3cc(F)c4cc(C5CCNCC5)nnc4c3)[nH]c2c(C)n1 [Compound 191, 7-(5,7-dimethyl-1H-pyrrolo[2,3-c]pyridin-2-yl)-5-fluoro-3-(piperidin-4-yl)cinnoline] | 100 to 500
11 | Cn1cc2cc(-c3ccc4cc(C5CCNCC5)cc(F)c4n3)cc(F)c2n1 [Compound 192, 8-fluoro-2-(7-fluoro-2-methyl-2H-indazol-5-yl)-6-(piperidin-4-yl)quinoline] | ≤ 100
12 | CCN1CCC(c2cc(F)c3nc(-c4cc(F)c5nn(C)cc5c4)ccc3c2)CC1 [Compound 193, 6-(1-ethylpiperidin-4-yl)-8-fluoro-2-(7-fluoro-2-methyl-2H-indazol-5-yl)quinoline] | ≤ 100
13 | Cc1cn2nc(-c3cc(F)c4cc(C5CCNCC5)nnc4c3)cc(-n3ccnc3)c2n1 [Compound 194, 5-fluoro-7-[8-(1H-imidazol-1-yl)-2-methylimidazo[1,2-b]pyridazin-6-yl]-3-(piperidin-4-yl)cinnoline] | 100 to 500
14 | Cc1cn2nc(-c3cc(F)c4cc(C5CCNCC5)nnc4c3)cc(Oc3ccccc3)c2n1 [Compound 195, 5-fluoro-7-(2-methyl-8-phenoxyimidazo[1,2-b]pyridazin-6-yl)-3-(piperidin-4-yl)cinnoline] | ≤ 100
15 | Cc1cc2nc(-c3cc(F)c4cc(C5CCNCC5)nnc4c3)sc2c(C)n1 [Compound 196, 7-(4,6-dimethyl[1,3]thiazolo[5,4-c]pyridin-2-yl)-5-fluoro-3-(piperidin-4-yl)cinnoline] | ≤ 100
16 | CCN1CCC(c2cc3c(F)cc(-c4nc5cc(C)nc(C)c5s4)cc3nn2)CC1 [Compound 197, 7-(4,6-dimethyl[1,3]thiazolo[5,4-c]pyridin-2-yl)-3-(1-ethylpiperidin-4-yl)-5-fluorocinnoline] | ≤ 100

Now from value to compound:

Row | IC50 [nM] | SMILES
17 | ≤ 100 | Cc1cn2nc(-c3cc(F)c4cc(C5CCN(CCCn6cccn6)CC5)nnc4c3)cc(C)c2n1 [Compound 160, 7-(2,8-dimethylimidazo[1,2-b]pyridazin-6-yl)-5-fluoro-3-{1-[3-(1H-pyrazol-1-yl)propyl]piperidin-4-yl}cinnoline]
18 | ≤ 100 | Cc1cn2nc(-c3cc(F)c4cc(C5C[C@@H](C)N(C)[C@@H](C)C5)nnc4c3)cc(C)c2n1 (some centres unmarked) [Compound 161]
19 | ≤ 100 | Cc1cc(-c2cc(F)c3cc(C4CCNCC4)nnc3c2)nc2cn(C)nc12 [Compound 162, 7-(2,7-dimethyl-2H-pyrazolo[4,3-b]pyridin-5-yl)-5-fluoro-3-(piperidin-4-yl)cinnoline]
20 | ≤ 100 | COc1cc(-c2cc(F)c3cc(C4CCNCC4)nnc3c2)nc2cn(C)nc12 [Compound 163, 5-fluoro-7-(7-methoxy-2-methyl-2H-pyrazolo[4,3-b]pyridin-5-yl)-3-(piperidin-4-yl)cinnoline]
21 | ≤ 100 | CCN1CCC(c2cc3c(F)cc(-c4cc(C)c5nn(C)cc5n4)cc3nn2)CC1 [Compound 164, 7-(2,7-dimethyl-2H-pyrazolo[4,3-b]pyridin-5-yl)-3-(1-ethylpiperidin-4-yl)-5-fluorocinnoline]
22 | ≤ 100 | CCc1cc(-c2cc(F)c3cc(C4CCNCC4)nnc3c2)nc2cn(C)nc12 [Compound 172, 7-(7-ethyl-2-methyl-2H-pyrazolo[4,3-b]pyridin-5-yl)-5-fluoro-3-(piperidin-4-yl)cinnoline]
23 | ≤ 100 | CCN1CCC(c2cc3c(F)cc(-c4cc(OC)c5nn(C)cc5n4)cc3nn2)CC1 [Compound 173, 3-(1-ethylpiperidin-4-yl)-5-fluoro-7-(7-methoxy-2-methyl-2H-pyrazolo[4,3-b]pyridin-5-yl)cinnoline]
24 | ≤ 100 | CCc1cc(-c2cc(F)c3cc(C4CCN(CC)CC4)nnc3c2)nc2cn(C)nc12 [Compound 174, 7-(7-ethyl-2-methyl-2H-pyrazolo[4,3-b]pyridin-5-yl)-3-(1-ethylpiperidin-4-yl)-5-fluorocinnoline]
25 | ≤ 100 | Cc1cn2nc(-c3cc(F)c4cc(C5CCN(C)CC5)nnc4c3)cc(C#N)c2n1 [Compound 176, 6-[5-fluoro-3-(1-methylpiperidin-4-yl)cinnolin-7-yl]-2-methylimidazo[1,2-b]pyridazine-8-carbonitrile]
26 | ≤ 100 | Cc1cc(-c2cc3c(F)cc(C4CCNCC4)cc3nn2)cc2cn(C)nc12 [Compound 177, 3-(2,7-dimethyl-2H-indazol-5-yl)-5-fluoro-7-(piperidin-4-yl)cinnoline]
27 | ≤ 100 | Cc1cn2nc(-c3cc(F)c4cc(C5CCN(CCO)CC5)nnc4c3)cc(C#N)c2n1 [Compound 178, 6-{5-fluoro-3-[1-(2-hydroxyethyl)piperidin-4-yl]cinnolin-7-yl}-2-methylimidazo[1,2-b]pyridazine-8-carbonitrile]
28 | ≤ 100 | Cc1cn2nc(-c3cc(F)c4cc(C5CCN(CCF)CC5)nnc4c3)cc(C#N)c2n1 [Compound 179, 6-{5-fluoro-3-[1-(2-fluoroethyl)piperidin-4-yl]cinnolin-7-yl}-2-methylimidazo[1,2-b]pyridazine-8-carbonitrile]
29 | ≤ 100 | Cc1cn2nc(-c3cc(F)c4cc(C5CCN(C)CC5)nnc4c3)cc(CO)c2n1 [Compound 180, {6-[5-fluoro-3-(1-methylpiperidin-4-yl)cinnolin-7-yl]-2-methylimidazo[1,2-b]pyridazin-8-yl}methanol]
30 | ≤ 100 | Cc1cn2nc(-c3cc(F)c4cc(C5CCN(CCO)CC5)nnc4c3)cc(CO)c2n1 [Compound 181, 2-(4-{5-fluoro-7-[8-(hydroxymethyl)-2-methylimidazo[1,2-b]pyridazin-6-yl]cinnolin-3-yl}piperidin-1-yl)ethan-1-ol]
31 | ≤ 100 | Cc1cn2nc(-c3cc(F)c4cc(C5CCN(CCF)CC5)nnc4c3)cc(CO)c2n1 [Compound 182, (6-{5-fluoro-3-[1-(2-fluoroethyl)piperidin-4-yl]cinnolin-7-yl}-2-methylimidazo[1,2-b]pyridazin-8-yl)methanol]
32 | ≤ 100 | CCN1CCC(c2cc(F)c3cc(-c4cc(C)c5nn(C)cc5c4)nnc3c2)CC1 [Compound 183, 3-(2,7-dimethyl-2H-indazol-5-yl)-7-(1-ethylpiperidin-4-yl)-5-fluorocinnoline]
33 | ≤ 100 | Cc1cn2nc(-c3cc4c(F)cc(C5CCNCC5)cc4nn3)cc(C)c2n1 [Compound 185, 3-(2,8-dimethylimidazo[1,2-b]pyridazin-6-yl)-5-fluoro-7-(piperidin-4-yl)cinnoline]
34 | ≤ 100 | CCN1CCC(c2cc(F)c3cc(-c4cc(C)c5nc(C)cn5n4)nnc3c2)CC1 [Compound 186, 3-(2,8-dimethylimidazo[1,2-b]pyridazin-6-yl)-7-(1-ethylpiperidin-4-yl)-5-fluorocinnoline]
35 | ≤ 100 | Cc1cn2nc(-c3cc(F)c4cc(C5CCNCC5)nnc4c3)cc(CC#N)c2n1 [Compound 187, {6-[5-fluoro-3-(piperidin-4-yl)cinnolin-7-yl]-2-methylimidazo[1,2-b]pyridazin-8-yl}acetonitrile]
36 | ≤ 100 | Cc1cn2nc(-c3cc(F)c4cc(C5CCCN(C)CC5)nnc4c3)cc(C)c2n1 (centres unmarked) [Compound 188, 7-(2,8-dimethylimidazo[1,2-b]pyridazin-6-yl)-5-fluoro-3-(1-methylazepan-4-yl)cinnoline]
37 | ≤ 100 | CCN1CCCC(c2cc3c(F)cc(-c4cc(C)c5nc(C)cn5n4)cc3nn2)CC1 (centres unmarked) [Compound 189, 7-(2,8-dimethylimidazo[1,2-b]pyridazin-6-yl)-3-(1-ethylazepan-4-yl)-5-fluorocinnoline]
38 | ≤ 100 | Cc1cn2nc(-c3cc(F)c4cc(C5CCCN(CCO)CC5)nnc4c3)cc(C)c2n1 (centres unmarked) [Compound 190, 2-{4-[7-(2,8-dimethylimidazo[1,2-b]pyridazin-6-yl)-5-fluorocinnolin-3-yl]azepan-1-yl}ethan-1-ol]
